test system: A673 NR0B1-luciferase reporter, viability-normalised luminescence; assay: NR0B1 reporter signal reduction in A673 cells – cell-based, luciferase luminescence, cherry-pick, EWS/Fli inhibitor project, dose response (AID 686920)

SMILES | AC35 [µM]
CC(C)(C)c1ccc(Oc2ccc(N)cn2)cc1 | 1.2
C(=Cc1c[nH]c2ccccc12)c1ccc2ccccc2n1 | 2.22
COc1ccc2nc(-c3ccc(F)cc3)sc2c1 | 8.38
C[C@H]1CN([C@@H](C)CO)S(=O)(=O)c2ccc(C#Cc3ccncc3)cc2O[C@@H]1CN(C)C(=O)Nc1ccc2c(c1)OCO2 | 10.1
C[C@@H]1CN([C@@H](C)CO)C(=O)c2cc(NS(=O)(=O)c3ccccc3)ccc2O[C@@H]1CN(C)Cc1ccc(C(=O)Nc2ccccc2N)cc1 | 9.16
O=c1c2ccccc2nc(/C=C/c2cc(Br)ccc2O)n1CCCO | 23.9
COc1ccc(C=NNc2nc3ccccc3s2)cc1 | 6.43
CCc1ccc(S(=O)(=O)c2ccc(-n3nc(C)cc3N)cc2)cc1 | 31.4
CCOc1ccc(N=C2C(=O)Nc3ccc(C)c(Br)c32)cc1 | 26.4
C[C@H]1CN([C@@H](C)CO)C(=O)c2cc(NC(=O)C3CCCCC3)ccc2O[C@H]1CN(C)Cc1ccc(C(=O)Nc2ccccc2N)cc1 | 4.8
C[C@@H]1CN([C@H](C)CO)S(=O)(=O)c2ccc(C#CC3CC3)cc2O[C@@H]1CN(C)Cc1ccccc1F | 30.4
COc1ccc(C2=Nn3c(nnc3-c3ccccc3OC)SC2)cc1OCC1CC1 | 6.71
COc1ccc(Cl)cc1S(=O)(=O)Nc1ccc2c(c1)n(C)c(=O)n2C | 31.3
C[C@@H]1CCCCO[C@H](CN(C)Cc2ccc(C(=O)Nc3ccccc3N)cc2)[C@@H](C)CN([C@H](C)CO)C(=O)c2cc(NS(=O)(=O)c3ccc(F)cc3)ccc2O1 | 5.53
O=c1c(Cl)cc(Cl)nn1-c1ccccc1 | 8.95
O=C(CN1C(=O)c2ccccc2S1(=O)=O)c1ccc(F)cc1 | 3.98
C[C@H](CO)N1C[C@H](C)[C@@H](CN(C)Cc2ccc(C(F)(F)F)cc2)OCCCC[C@H](C)Oc2ccc(NS(=O)(=O)c3ccc(F)cc3)cc2C1=O | 16.6
O=c1c2ccccc2oc2ccc(C#CC3(O)CCCCC3)cc12 | 14.1
COc1ccc(CN(C)c2ncnc3sccc23)c(OC)c1OC | 10.7
C(=N\Nc1ccc2ccccc2n1)/c1ccc2c(c1)OCO2 | 5.76
C[C@H]1CN([C@@H](C)CO)C(=O)Cc2cc(NC(=O)CCCCCC(=O)Nc3ccccc3N)ccc2O[C@H]1CN(C)Cc1ccc(Oc2ccccc2)cc1 | 5.63
COc1ccc(/C=N/Nc2ccc(C(=O)O)cc2)cc1Br | 3.93
COc1ccc(S(=O)(=O)Nc2cccc3c2O[C@H](CN(C)Cc2ccc(C(=O)Nc4ccccc4N)cc2)[C@H](C)CN([C@@H](C)CO)C3=O)cc1 | 5.64
Cc1cc2c(C(C)C)c(O)c(O)c(C=O)c2c(O)c1-c1c(C)cc2c(C(C)C)c(O)c(O)c(C=O)c2c1O | 7.16

SMILES | AC35 [µM]
CCCCC[C@H](C)N1C[C@H](COCc2ccccc2)Oc2cc(N3CC[C@@H](N(C)C)C3)ccc2S1(=O)=O | 34.7
C[C@H]1CN([C@@H](C)CO)C(=O)c2cc(N(C)C)ccc2O[C@H]1CN(C)Cc1ccc(C(=O)Nc2ccccc2N)cc1 | 15
CCOc1ccc(C(c2c(NC(=O)c3ccccc3)sc(C)c2C)N2CCN(CCO)CC2)cc1 (stereo not drawn) | 46.3
COC(=O)C[C@@H]1CC[C@@H]2[C@H](COc3ccc(NC(=O)c4ccc(C(F)(F)F)cc4)cc3C(=O)N2C)O1 | 12.1
CCN1C/C(=C/c2ccc(OC)c(O)c2)C(=O)/C(=C/c2ccc(OC)c(O)c2)C1 | 17.3
Cc1ccc(C(C)C)c(OCc2ccc(C(=O)N/N=C/c3ccc(O)cc3O)cc2)c1 | 1.46
OCCN1CCN(C(=S)c2ccc(-c3ccccc3)cc2)CC1 | 1.94
O=C(NCCc1ccccc1)c1ccccc1NC(=O)C1CCCO1 (stereo not drawn) | 6.89
O=C1C(=O)N(Cc2cccs2)c2ccccc21 | 17
CCN1/C(=C/C(C)=C/c2sc3ccccc3[n+]2CC)Sc2ccccc21 | 1.56
CN(C)c1ccc(C=c2c3ccccc3n3c2c2c([n+]3C)CCCC2)cc1 | 1.9
OCC1OC(n2cnc3c(NCc4ccco4)ncnc32)C(O)C1O (stereo not drawn) | 2.81
COC(=O)C[C@@H]1CC[C@@H]2[C@@H](COc3ccc(NC(=O)Nc4ccc(C#N)cc4)cc3C(=O)N2C)O1 | 56.2
CC(=NNc1ccc2ccccc2n1)c1ccccc1O | 5.09
COc1ccc(NC(=O)N2CCCCN3[C@H](CO)[C@H](c4ccc(C#CCC(C)C)cc4)[C@H]3C2)cc1 | 9.98
O=C1NC(=O)N(Cc2ccccc2)C(=O)/C1=C\C=C\c1ccco1 | 10.4
O=C(C1CC1)N1C[C@@H]2N[C@H](C1)C2c1ccc(/C=C/c2ccccc2)cc1 (stereo partly drawn) | 26.1
O=C1NC(=O)N(c2ccccc2)C(=O)/C1=C\C=C\c1ccccc1 | 8.31
CN=c1scc(-c2cccs2)n1/N=C/c1ccccc1O | 0.298
COc1ccccc1/C=C1\SC(=S)N(CCC(=O)Nc2cc(C)on2)C1=O | 16.8
COCCCNc1ccn2nc(-c3ccccc3)cc2n1 | 10.1
COc1cc(-c2cnc3c(NC=O)cc(-c4cccc(NC(C)=O)c4)cn23)cc(OC)c1OC | 0.298
CN1c2ccc(-c3ccc(C#N)cc3)cc2[C@H]2[C@H](CCN2S(=O)(=O)c2cccc(F)c2)[C@@H]1CO | 4.64
CO[C@H]1CN(C)C(=O)c2cc(NC(=O)c3ccc(Oc4ccccc4)cc3)ccc2OC[C@H](C)NC[C@@H]1C | 26.5
